Data as given in patent US8658791B2, “2-substituted-6-amino-5-alkyl, alkenyl or alkynyl-4-pyrimidinecarboxylic acids and 6-substituted-4-amino-3-alkyl, alkenyl or alkynyl picolinic acids and their use as herbicides” (Dow AgroSciences, LLC, priority 2007, dated 2014).

Experiments:
[1] = system: wild poinsettia (Euphorbia heterophylla); assay: General preemergence herbicidal activity, EPHHL; type: in vivo; settings: applied to soil surface, visual score after 20-22 days, 0 = no injury, 100 = complete kill or no emergence, read-out: Pre-emergent Weed Control EPHHL; for pest or weed control at 140 g/ha: 140 g ai/ha
Description: (§1) Seeds of the desired test plant species were planted in a soil matrix prepared by mixing a loam soil (43 percent silt, 19 percent clay, and 38 percent sand, with a pH of about 8.1 and an organic matter content of about 1.5 percent) and sand in a 70 to 30 ratio. The soil matrix was contained in plastic pots with a surface area of 127 square centimeters. When required to ensure good germination and healthy plants, a fungicide treatment and/or other chemical or physical treatment was applied. A weighed amount, determined by the highest rate to be tested, of each test compound was placed in a 25 mL glass vial and was dissolved in 6 mL of a 97:3 v/v (volume/volume) mixture of acetone and DMSO to obtain concentrated stock solutions. […] The stock solutions obtained were diluted with 18 mL of a 0.1% v/v aqueous solution of Tween® 20 surfactant to obtain spray solutions containing the highest application rate. Additional application rates were obtained by serial dilution of 12 mL of the high rate solution into a solution containing 3 mL of 97:3 v/v mixture of acetone and DMSO and 9 mL of the 0.1% v/v aqueous solution of Tween® 20 surfactant to obtain 1/2X, 1/4X, 1/8X and 1/16X rates of the high rate. Compound requirements are based upon a 12 mL application volume at a rate of 187 L/ha. Formulated compounds were applied to the soil surface with an overhead Mandel track sprayer equipped with a […] nozzles calibrated to deliver 187 L/ha over an application area of 0.503 square meters at a spray height of 18 inches (43 cm) above the soil surface. Control pots were sprayed in the same manner with the solvent blank. The treated pots and control pots were placed in a greenhouse maintained with an approximate 15 hour photoperiod and temperatures of about 23-29° C. during the day and 22-28° C. during the night. Nutrients and water were added on a regular basis and supplemental lighting was provided with overhead metal halide 1000-Watt lamps as necessary. The water was added by top-irrigation. After 20-22 days, the condition of the test plants that germinated and grew as compared with that of the untreated plants that emerged and grew was determined visually and scored on a scale of 0 to 100 percent where 0 corresponds to no injury and 100 corresponds to complete kill or no emergence.

rice (Oryza sativa) [2] = assay: General postemergence herbicidal activity, ORYSA; type: in vivo; settings: Oryza sativa, post-emergence, 336 h, postemergence spray, visual score after 14 days, 0 = no injury, 100 = complete kill, read-out: Post-emergent Weed Control ORYSA; for plant injury at 70 g/ha: 70 g ai/ha; for plant injury at 280 g/ha: 280 g ai/ha; for plant injury at 140 g/ha: 140 g ai/ha
Procedure, shortened: (§2)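 Postemergence spray, 187 L/ha track sprayer, first–second true leaf stage; highest rate plus 1/2X, 1/4X, 1/8X, 1/16X. Sub-irrigated greenhouse, 14 d. Visual injury vs untreated, 0 = none, 100 = complete kill.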

[3] = system: velvetleaf (Abutilon theophrasti); assay: General postemergence herbicidal activity, ABUTH; type: in vivo; settings: Abutilon theophrasti, post-emergence, 336 h, postemergence spray, visual score after 14 days, 0 = no injury, 100 = complete kill, read-out: Post-emergent Weed Control ABUTH; for pest or weed control at 70 g/ha: 70 g ai/ha; for pest or weed control at 280 g/ha: 280 g ai/ha; for pest or weed control at 140 g/ha: 140 g ai/ha
Procedure, shortened: as §2

[4] = system: lambsquarter (Chenopodium album); assay: General preemergence herbicidal activity, CHEAL; type: in vivo; settings: applied to soil surface, visual score after 20-22 days, 0 = no injury, 100 = complete kill or no emergence, read-out: Pre-emergent Weed Control CHEAL; for pest or weed control at 140 g/ha: 140 g ai/ha
Description: as §1

rice (Oryza sativa) [5] = assay: General preemergence herbicidal activity, ORYSA; type: in vivo; settings: applied to soil surface, visual score after 20-22 days, 0 = no injury, 100 = complete kill or no emergence, read-out: Pre-emergent Weed Control ORYSA; for plant injury at 140 g/ha: 140 g ai/ha
Description: as §1

[6] = system: lambsquarter (Chenopodium album); assay: General postemergence herbicidal activity, CHEAL; type: in vivo; settings: Chenopodium album, post-emergence, 336 h, postemergence spray, visual score after 14 days, 0 = no injury, 100 = complete kill, read-out: Post-emergent Weed Control CHEAL; for pest or weed control at 70 g/ha: 70 g ai/ha; for pest or weed control at 280 g/ha: 280 g ai/ha; for pest or weed control at 140 g/ha: 140 g ai/ha
Procedure, shortened: as §2

[7] = system: velvetleaf (Abutilon theophrasti); assay: General preemergence herbicidal activity, ABUTH; type: in vivo; settings: applied to soil surface, visual score after 20-22 days, 0 = no injury, 100 = complete kill or no emergence, read-out: Pre-emergent Weed Control ABUTH; for pest or weed control at 140 g/ha: 140 g ai/ha
Description: as §1

[8] = system: barnyardgrass (Echinochloa crus-galli); assay: General preemergence herbicidal activity, ECHCG; type: in vivo; settings: applied to soil surface, visual score after 20-22 days, 0 = no injury, 100 = complete kill or no emergence, read-out: Pre-emergent Weed Control ECHCG; for pest or weed control at 140 g/ha: 140 g ai/ha
Description: as §1

[9] = system: barnyardgrass (Echinochloa crus-galli); assay: General postemergence herbicidal activity, ECHCG; type: in vivo; settings: Echinochloa crus-galli, post-emergence, 336 h, postemergence spray, visual score after 14 days, 0 = no injury, 100 = complete kill, read-out: Post-emergent Weed Control ECHCG; for pest or weed control at 70 g/ha: 70 g ai/ha; for pest or weed control at 280 g/ha: 280 g ai/ha; for pest or weed control at 140 g/ha: 140 g ai/ha
Procedure, shortened: as §2

[10] = system: wild poinsettia (Euphorbia heterophylla); assay: General postemergence herbicidal activity, EPHHL; type: in vivo; settings: Euphorbia heterophylla, post-emergence, 336 h, postemergence spray, visual score after 14 days, 0 = no injury, 100 = complete kill, read-out: Post-emergent Weed Control EPHHL; for pest or weed control at 70 g/ha: 70 g ai/ha; for pest or weed control at 280 g/ha: 280 g ai/ha; for pest or weed control at 140 g/ha: 140 g ai/ha
Procedure, shortened: as §2

SMILES	pest or weed control at 140 g/ha [1]	plant injury at 70 g/ha (rice (Oryza sativa) [2])	pest or weed control at 70 g/ha [3]	pest or weed control at 140 g/ha [4]	plant injury at 140 g/ha (rice (Oryza sativa) [5])	pest or weed control at 70 g/ha [6]	pest or weed control at 140 g/ha [7]	pest or weed control at 140 g/ha [8]	pest or weed control at 70 g/ha [9]	pest or weed control at 70 g/ha [10]	also measured
C=Cc1c(N)nc(-c2ccc(Cl)c(OC)c2F)nc1C(=O)OC [Compound 3, 6-Amino-2-(4-chloro-2-fluoro-3-methoxyphenyl)-5-vinylpyrimidine-4-carboxylic acid methyl ester]	100%	15%	100%	100%	30%	100%	80%	80%	95%	100%	–
C/C=C\c1c(N)nc(-c2ccc(Cl)c(OC)c2F)nc1C(=O)O [Compound 55, 6-Amino-2-(4-chloro-2-fluoro-3-methoxyphenyl)-5-((Z)-propenyl)pyrimidine-4-carboxylic acid]	100%	15%	100%	100%	30%	100%	100%	60%	100%	100%	–
C=Cc1c(N)nc(-c2ccc(Cl)cc2)nc1C(=O)O [Compound 43, 6-Amino-2-(4-chlorophenyl)-5-vinylpyrimidine-4-carboxylic acid]	100%	–	–	100%	90%	–	100%	90%	–	–	plant injury at 280 g/ha (rice (Oryza sativa) [2]): 35%; pest or weed control at 280 g/ha [3]: 90%; pest or weed control at 280 g/ha [6]: 100%; pest or weed control at 280 g/ha [9]: 90%; pest or weed control at 280 g/ha [10]: 100%
C=Cc1c(N)cc(-c2ccc(Cl)c(OC)c2F)nc1C(=O)O [Compound 59, 4-Amino-6-(4-chloro-2-fluoro-3-methoxyphenyl)-3-vinylpyridine-2-carboxylic acid]	100%	–	–	100%	0%	–	100%	100%	–	–	plant injury at 140 g/ha (rice (Oryza sativa) [2]): 0%; pest or weed control at 140 g/ha [3]: 100%; pest or weed control at 140 g/ha [6]: 100%; pest or weed control at 140 g/ha [9]: 100%; pest or weed control at 140 g/ha [10]: 100%
C=Cc1c(N)nc(-c2ccc(Cl)c(F)c2F)nc1C(=O)OC [Compound 11, 6-Amino-2-(4-chloro-2,3-difluorophenyl)-5-vinyl-pyrimidine-4-carboxylic acid methyl ester]	–	0%	100%	–	–	100%	–	–	90%	100%	pest or weed control at 70 g/ha ([1]; 70 g ai/ha): 100%; pest or weed control at 70 g/ha ([4]; 70 g ai/ha): 100%; plant injury at 70 g/ha (rice (Oryza sativa) [5]; 70 g ai/ha): 95%; pest or weed control at 70 g/ha ([7]; 70 g ai/ha): 100%; pest or weed control at 70 g/ha ([8]; 70 g ai/ha): 100%
CCc1c(N)nc(-c2ccc(Cl)c(OC)c2F)nc1C(=O)OC [Compound 21, 6-Amino-2-(4-chloro-2-fluoro-3-methoxyphenyl)-5-ethyl-pyrimidine-4-carboxylic acid methyl ester]	80%	–	–	40%	0%	–	60%	0%	–	–	plant injury at 140 g/ha (rice (Oryza sativa) [2]): 0%; pest or weed control at 140 g/ha [3]: 85%; pest or weed control at 140 g/ha [6]: 100%; pest or weed control at 140 g/ha [9]: 70%; pest or weed control at 140 g/ha [10]: 100%
C=Cc1c(N)nc(-c2ccc(Cl)c(OC)c2)nc1C(=O)O [Compound 45, 6-Amino-2-(4-chloro-3-methoxyphenyl)-5-vinylpyrimidine-4-carboxylic acid]	0%	–	–	60%	30%	–	0%	10%	–	–	plant injury at 280 g/ha (rice (Oryza sativa) [2]): 0%; pest or weed control at 280 g/ha [3]: 0%; pest or weed control at 280 g/ha [6]: 95%; pest or weed control at 280 g/ha [9]: 60%; pest or weed control at 280 g/ha [10]: 60%
C=Cc1c(N)nc(-c2ccc(Cl)c(F)c2F)nc1C(=O)O [Compound 44, 6-amino-2-(4-chloro-2,3-difluorophenyl)-5-vinylpyrimidine-4-carboxylic acid]	–	15%	100%	–	–	100%	–	–	100%	100%	melting point: 170 to 172 °C
